Source: patent US5863950A, “HIV protease inhibitors” (Agouron Pharmaceuticals, Inc., priority 1994, dated 1999)
Where “and” joins values, the source holds several entries; their conditions need not be identical. Equal values may be shown once.

Target: T1, HIV-1 protease (Human immunodeficiency virus type 1 group M subtype B, UniProt P04585)
T1 construct: purified HIV-1 protease
Test: biochemical
Format: biochemical
Conditions: not given
Procedure: 1. Proteolytic activity of purified HIV-1 protease was routinely measured using the chromogenic assay developed by Richards et al. (J. Biol. Chem. 265: 7733 (1990)). Synthetic peptide His-Lys-Ala-Arg-Val-Leu-Phe (pNO2)-Glu-Ala-Nle-Ser-NH2 (American Peptide Company) was used as the substrate.
2. The assay was carried out in 0.5M NaCl, 50 mM MES pH 5.6, 2% DMSO (dimethylsulfoxide) at 37° C. Cleavage of the scissile bond between leucine and paranitro-phenylalanine (Phe(pNO2)) was assayed by spectrophotometric monitoring of the decrease in absorbance at 305 nm. Initial velocity was determined as the rate of decline of absorbance during the first 100 seconds of reaction.
3. […] Between 15-25 concentrations of inhibitor were added and velocity of reaction was measured at each of the concentrations, as described above.
4. Inhibition constants were calculated using the method of Jackson et al. (Adv. in Enzyme Regulation 22: 187 (1984)).

| Compound | IC50 [µM] | Ki [µM] |
| --- | --- | --- |
| CC(C)(C)NC(=O)c1c(CCC(O)Cc2ccc3ccccc3c2C(=O)NC(C)(C)C)ccc2ccccc12 (single isomer, unassigned) [Example 49] | 0.88 | 0.48 |

Same assay, conditions: 0.5M NaCl, 50 mM MES pH 5.6, 2% DMSO, 37° C., 200 μM substrate

| Compound | IC50 [µM] | Ki [µM] |
| --- | --- | --- |
| CC(C)(C)N(CCO)C(=O)c1ccccc1CCC(O)C(F)(F)c1ccccc1C(=O)N(CCO)C(C)(C)c1ccccc1 (centres unmarked) [Example 79] | 3.5 | 3.2 |
| CC(C)(C)N(CCO)C(=O)c1ccccc1CCC(O)CCc1ccccc1C(=O)N(CCO)C(C)(C)C [Example 33] | 6 | – |
| CC(C)(C)NC(=O)c1ccccc1CC(O)CSc1ccc2ccccc2c1C(=O)NC(C)(C)C (centres unmarked) [Example 47] | 50 | – |
| CC(C)(C)NC(=O)c1cc(C(C)(C)C)ccc1CCC(O)Cc1ccc(C(C)(C)C)cc1C(=O)NC(C)(C)C (centres unmarked) [Example 10] | 15 | – |
| CN(C(=O)c1ccccc1CCC(O)Cc1ccccc1C(=O)N(C)C(C)(C)C)C(C)(C)C (centres unmarked) [Example 55] | 6.3 | – |
| CC(C)(C)NC(=O)c1ccccc1NCC(O)Cc1ccc2ccccc2c1C(=O)NC(C)(C)C (centres unmarked) [Example 51] | 120 | – |
| CC(C)(C)NC(=O)c1cnccc1CC(O)CCc1ccc2ccccc2c1C(=O)NC(C)(C)C (centres unmarked) [Example 11] | 18 | – |
| CC(C)(C)N(CCCO)C(=O)c1ccccc1CCC(O)Cc1ccccc1C(=O)N(CCOCCN1CCOCC1)C(C)(C)c1ccccc1 (centres unmarked) [Example 75] | 8 | – |
| COC(CSc1ccccc1C(=O)NC(C)(C)C)Cc1ccccc1C(=O)NC(C)(C)C (centres unmarked) [Example 41] | > 500 | – |
| CC(C)(C)NC(=O)c1c(CCC(O)CCc2ccc3ccccc3c2C(=O)NC(C)(C)C)ccc2ccccc12 [Example 32] | 7 | – |
| CC(C)(C)NC(=O)c1ccccc1CC(O)CSc1ccccc1C(=O)N1CCOCC1 (centres unmarked) [Example 42] | 150 to 200 | – |
| CC(C)(C)N(CCO)C(=O)c1ccccc1CCC(O)Cc1ccccc1C(=O)N(Cc1ccccc1)C(C)(C)C (centres unmarked) [Example 64] | 8.3 | 7.9 |
| CC(C)(C)NC(=O)c1c(CCC(O)Cc2ccc3ccccc3c2C(=O)N(CCO)C(C)(C)C)ccc2ccccc12 (centres unmarked) [Example 14] | 5.6 | 5.4 |
| CN(C)CC(C)(C)CNC(=O)c1ccccc1SCC(O)Cc1ccccc1C(=O)NC(C)(C)C (centres unmarked) [Example 40] | > 500 | – |
| CC(C)(C)NC(=O)c1cc(C(C)(C)C)ccc1CCC(O)Cc1ccccc1C(=O)N(CCO)C(C)(C)C (centres unmarked) [Example 35] | 1.19 | 0.84 |
| CCc1ccc(CC(O)CCc2ccccc2C(=O)N(CCOCc2ccccc2)C(C)(C)c2ccccc2)c(C(=O)N(CCO)C(C)(C)c2ccccc2)c1 (centres unmarked) [Example 88] | 0.23 | 0.075 |
| Cc1ccc(CC(O)CCc2ccccc2C(=O)N(Cc2ccccc2)C(C)C)c(C(=O)N(CCO)C(C)(C)c2ccccc2)c1 (centres unmarked) [Example 86] | 0.448 | 0.379 |
| CC(C)(C)NC(=O)c1ccccc1SCC(O)CN1CCCCC1C(=O)NC(C)(C)C (centres unmarked) [Example 22] | 60 | – |
| CC(C)(C)N(CCO)C(=O)c1ccccc1CC(O)C(O)Cc1ccccc1C(=O)N(CCO)C(C)(C)C (centres unmarked) [Example 58] | 9.6 | 7.7 |
| CN(C)CCNC(=O)c1ccccc1SCC(O)Cc1ccccc1C(=O)NC(C)(C)C (centres unmarked) [Example 39] | > 500 | – |
| Cc1ccc(CCC(O)Cc2ccccc2C(=O)N(CCO)C2(C)CCCC2)c(C(=O)N(CCO)C(C)(C)C)c1 (centres unmarked) [Example 4] | 0.72 | 0.42 |
| CC(C)(C)N(CCO)C(=O)c1ccccc1CCC(O)Cc1ccccc1C(=O)N(CCO)C(C)(C)Cc1ccccc1 (centres unmarked) [Example 61] | 1.33 | 1.27 |
| CC(C)(C)N(CCO)C(=O)c1ccccc1CCC(O)Cc1ccccc1C(=O)N(c1ccccc1)C(C)(C)C (centres unmarked) [Example 68] | 11.9 | 5.8 |

| Compound | IC50 [µM] | Ki [µM] |
| --- | --- | --- |
| CC(C)(C)NC(=O)c1ccccc1C#CC(O)Cc1ccccc1C(=O)NC(C)(C)C (centres unmarked) [Example 26] | > 200 | – |
| CC(C)(C)NC(=O)c1ccccc1SCC(O)Cc1ccccc1C(=O)N(CCO)C(C)(C)C (centres unmarked) [Example 36] | 25 | – |
| CC(C)(C)NC(=O)c1ccccc1NCC(O)Cc1ccc2ccccc2c1C(=O)NC(C)(C)C (centres unmarked) [Example 50] | 120 | – |
| Cc1cc(CC(O)CCc2ccccc2C(=O)N(CCO)C(C)(C)C)c(C(=O)N(CCO)C(C)(C)c2ccccc2)cc1C (centres unmarked) [Example 90] | 0.2 | 0.176 |
| CC(C)(C)N(CCO)C(=O)c1ccccc1CCC(O)C(F)c1ccccc1C(=O)N(CCO)C(C)(C)c1ccccc1 (centres unmarked) [Example 71] | 1.3 | 0.879 |
| CC(C)(C)NC(=O)c1cc(C(C)(C)C)ccc1CC[C@@H](O)Cc1ccc2ccccc2c1C(=O)NC(C)(C)C [Example 8] | ~20 | – |
| CC(C)(C)N(CCO)C(=O)c1ccccc1CCC(=O)C(F)c1ccccc1C(=O)N(CCO)C(C)(C)c1ccccc1 (centres unmarked) [Example 70] | 9 | – |
| CN(C)CCNC(=O)c1ccccc1CC(O)CSc1ccccc1C(=O)NCCN(C)C (centres unmarked) [Example 37] | > 500 | – |
| CC(C)(C)NC(=O)c1ccccc1CC(O)CSc1ccc(NCc2ccncc2)cc1C(=O)NC(C)(C)C (centres unmarked) [Example 46] | 200 | – |
| CC(C)(C)NC(=O)c1cc(C(C)(C)C)ccc1CCC(O)Cc1ccc2ccccc2c1C(=O)NC(C)(C)C (centres unmarked) [Example 7] | 1.02 | 1.01 |
| CC(C)(C)NC(=O)c1c(CC(O)CCc2ccccc2C(=O)N(CCO)C(C)(C)C)ccc2ccccc12 (centres unmarked) [Example 3] | 2.38 | 1.31 |
| CC(C)(C)N(CCO)C(=O)c1c(CCC(O)Cc2ccc3ccccc3c2C(=O)N(CCO)C(C)(C)C)ccc2ccccc12 (centres unmarked) [Example 6] | 30 | – |
| CCNC(=O)c1ccccc1CC(O)CSc1ccccc1C(=O)NCCN(C)C (centres unmarked) [Example 38] | > 500 | – |
| CC(C)(C)N(CCO)C(=O)c1ccccc1CCC(O)Cc1ccccc1C(=O)N(CCOCc1ccccc1)C(C)(C)c1ccncc1 (centres unmarked) [Example 76] | 1.74 | 0.92 |
| CC(C)(C)N(CCO)C(=O)c1ccccc1CC(O)CSc1ccccc1C(=O)N(CCO)C(C)(C)C (centres unmarked) [Example 85] | 36 | 18.4 |
| CC(C)(C)NC(=O)c1ccccc1CCC(O)Cc1ccccc1C(=O)NC(C)(C)C (centres unmarked) [Example 25] | 18 | – |
| CC(C)(C)NC(=O)c1ccccc1SCC(O)Cc1ccc2ccccc2c1C(=O)NC(C)(C)C (centres unmarked) [Example 52] | 25 | – |
| CC(C)N1CCC(CC(O)CCc2ccc3ccccc3c2C(=O)NC(C)(C)C)=C(C(=O)NC(C)(C)C)C1 (centres unmarked) [Example 48] | 70 | – |
| CC(C)(C)NC(=O)c1ccccc1CC(O)CSc1ccc(NC(=O)c2ccncc2)cc1C(=O)NC(C)(C)C (centres unmarked) [Example 45] | 60 | – |
| CC(C)(C)NC(=O)[C@@H]1C[C@@H]2CCCC[C@@H]2CN1CC(O)CCc1ccccc1C(=O)N(CCO)C(C)(C)C (single isomer, unassigned) [Example 30] | 38 | – |
| CC(C)(C)NC(=O)c1ccccc1SCC(O)c1ccccc1C(=O)NC(C)(C)C (centres unmarked) [Example 17] | > 200 | – |
| CC(C)(C)NC(=O)c1ccccc1CC(O)C(O)Cc1ccccc1C(=O)NC(C)(C)C (centres unmarked) [Example 56] | 64 | 56 |
| CC(C)(C)NC(=O)[C@@H]1C[C@@H]2CCCC[C@@H]2CN1CC(O)CCc1ccccc1C(=O)N(CCO)C(C)(C)C (single isomer, unassigned) [Example 29] | 55 | – |

Same assay, conditions: at 10 (μM)

| Compound | percent (inhibition) [%] |
| --- | --- |
| CC(C)(C)NC(=O)c1ccccc1CCC(O)Cc1ccccc1C(=O)N(Cc1ccccc1)C(C)(C)C (centres unmarked) [Example 13] | 40 |
| CC(C)(C)NC(=O)c1c(CCC(O)Cc2ccccc2C(=O)N(c2ccccc2)C(C)(C)C)ccc2ccccc12 (centres unmarked) [Example 69] | 40 |
| CC(C)(C)NC(=O)c1c(CCC(O)Cc2ccccc2C(=O)N(Cc2nc3ccccc3[nH]2)C(C)(C)C)ccc2ccccc12 (centres unmarked) [Example 67] | 40 |

Same assay, conditions: at 20 (μM)

| Compound | percent (inhibition) [%] |
| --- | --- |
| CC(C)(C)NC(=O)c1cc2ccccc2cc1CCC(O)Cc1ccc2ccccc2c1C(=O)NC(C)(C)C (centres unmarked) [Example 9] | 40 |

Same assay, conditions: at 50 (μM)

| Compound | percent (inhibition) [%] |
| --- | --- |
| CC(C)(C)NC(=O)c1c(CCC(O)Cc2ccccc2-c2nccc3ccccc23)ccc2ccccc12 (centres unmarked) [Example 16] | 20 |

Same assay, conditions: at 100 (μM)

| Compound | percent (inhibition) |
| --- | --- |
| CC(C)(C)NC(=O)c1ccccc1CCC(O)CN1CCCCC1C(=O)NC(C)(C)C (centres unmarked) [Example 31] | 20% and 35% |
| CC(O)(CCc1ccccc1C(=O)NC(C)(C)C)Cc1ccccc1C(=O)NC(C)(C)C (centres unmarked) [Example 34] | 40% |
| CN(C(=O)c1c(CC(O)CCc2ccc3ccccc3c2C(=O)NC(C)(C)C)ccc2c1CNCC2)C(C)(C)C (centres unmarked) [Example 59] | 20% |

Same assay, conditions: at 200 (μM)

| Compound | percent (inhibition) [%] |
| --- | --- |
| CC(C)(C)NC(=O)c1ccccc1CC(O)CSc1ccc(N)cc1C(=O)NC(C)(C)C (centres unmarked) [Example 44] | 20 |
| CC(C)(C)NC(=O)c1ccccc1C(O)CSc1ccccc1NC(=O)C(C)(C)C (centres unmarked) [Example 21] | 10 |
| CC(C)(C)NC(=O)c1ccccc1CCC(O)C(O)CCc1ccccc1C(=O)NC(C)(C)C (centres unmarked) [Example 57] | 93 |
| CC(C)(C)NC(=O)c1ccccc1/C=C\C(O)Cc1ccccc1C(=O)NC(C)(C)C (centres unmarked) [Example 27] | 40 |
| CC(C)(C)NC(=O)c1ccccc1/C=C/C(O)Cc1ccccc1C(=O)NC(C)(C)C (centres unmarked) [Example 28] | 40 |
| CC(=O)N1CCc2ccc(CC(O)CCc3ccc4ccccc4c3C(=O)NC(C)(C)C)c(C(=O)N(C)C(C)(C)C)c2C1 (centres unmarked) [Example 63] | 40 |

Same assay, conditions: substrate, standard conditions; read-out: Michaelis constant (Km)

| Compound | Km [µM] |
| --- | --- |
| His-Lys-Ala-Arg-Val-Leu-Phe (pNO2)-Glu-Ala-Nle-Ser-NH2 [reference compound] | 52 ± 16 |
